≈ marks a conversion by molar mass, not a printed value.
Assays:
[1] = test system: Colon 38 carcinoma; experiment: in vivo murine solid tumor model, Colon 38 carcinoma (Test 7); parameters: species or system mice; settings: 10.0 mg/kg i.v., days 1, 4, 7 and 10; tumor weight on day 21
Protocol: Colon 38 carcinoma (fragment, 2×2×2 mm), maintained s.c. by serial passage in female C57BL/6 mice, was implanted s.c. to female BDFhd 1 mice on day 0, and the test compounds or vehicle were given i.v. to the mice once a day on days 1, 4, 7 and 10. Tumor weight was measured on day 21.
(§1) Tumor weight was calculated as follows: (Tumor length and width were measured by caliper.)
(§2) Tumor weight (mg)=1/2×a×b^2, where a represents length and b represents width (mm).
Ten mice were used for each test group or vehicle-treated control group.
Drug efficacy against the solid tumor is expressed as percentage of the mean tumor weight of the test group to that of the control group. [formula]

[2] = test system: L1210 Leukemia; experiment: L1210 Leukemia ascitic tumor in mice (Test 5); type: in vivo, mice (BDF1 or CDF1); settings: 10.0 mg/kg i.p., days 1-9, CDF1 mice; in physiological saline
Description: L1210 Leukemia (1×10^5 cells), maintained i.p. by serial passage in female DBA/2 mice, was implanted i.p. to female BDF1 or CDF1 mice on day 0, and the test compounds or vehicle were given i.p. to the mice once a day on days 1-9.
(§3) Ten mice were used for each test group, and twenty mice were used for each vehicle-treated control group.
(§4) Drug efficacy against the ascitic tumors is expressed as percentage of the median (mean) survival time of the test group to that of the control group. [formula] .circle.2 Results

[3] = test system: Human MX-1 mammary; experiment: Human MX-1 mammary tumor in nude mice (Test 9); type: in vivo, human (in BALB/c nu/nu mice); settings: 32. mg/kg (so in the source) i.v., days 10, 14 & 17; evaluation day 21
Protocol: (§5) Human LX-1 lung or MX-1 mammary (each fragment, 2×2×2 mm), maintained s.c. by serial passage in male BALB/c nu/nu mice, was implanted s.c. to male BALB/c nu/nu mice on day 0, and the test compounds or vehicle were given i.v. to the mice once a day on specified days in Table 9.
as §1, §2
(§6) Tumor weights (initial) and (last) were calculated on the first injection day (just before dosing) and on day 21, 27 or 28 (the last evaluation day), respectively.
(§7) Five mice were used for each test group and 5 or 10 mice were used for each vehicle-treated control group.
(§8) Drug efficacy was expressed as percentage of mean tumor weight of the test group to that of the control group. [formula]

[4] = test system: B16 Melanoma; experiment: B16 Melanoma in mice (Test 5); type: in vivo, mice (BDF1); settings: 3.2 mg/kg i.p., days 1-9; in physiological saline
Protocol: (§9) B16 Melanoma (1:10 brei, 0.5 ml), maintained s.c. by serial passage in female C57BL/6 mice, was implanted i.p. to female BDF1 mice on day 0, and the test compounds or vehicle were given i.p. to the mice once a day on days 1-9.
as §3, §4

[5] = test system: mouse lymphocytic leukemia P388 tumor cells; experiment: in vitro cytotoxicity, P388 tumor cells, 72 hours (Test 4); type: cell-based; settings: 50% inhibition of cell growth, 37° C.
Protocol: A suspension of mouse lymphocytic leukemia P388 tumor cells was prepared from a diluted ascitic fluid using Hanks' solution after 7 days of tumor implantation, and centrifuged at 1000 rpm for 15 minutes at cold temperature. The cells were adjusted at a concentration of 2.5×10^6 cell/ml in MEM Dulbecco medium supplemented with 10% foetal bovine serum, penicillin G (60 μg/ml) and streptomycin (20 μg/ml). Then, cells were treated with the graded doses of the test compounds in plastic tissue culture dishes at 37° C. and incubated for 72 hours in humidified atmosphere of 5% carbon dioxide. Concentration of the substance required for 50% inhibition of cell growth (IC50 value) (μg/ml) was determined by plotting the logarithms of the drug concentration versus the growth rate (percentage of control) of the treated cells.

[6] = Solubility
[7] = test system: L1210 Leukemia; experiment: L1210 Leukemia in mice, graded doses (Test 11); type: in vivo, mice (CDF1); settings: days 1-9
Protocol: L1210 Leukemia (1×10^5 cells), maintained i.p. by serial passage in female DBA/2 mice, was implanted i.p. to female CDF1 mice on day 0, and the test compounds or vehicle were given i.p. to the mice once a day on days 1-9.
as §3
(§10) Compound R (which was dissolved in 10% polyoxyethylated (60 mol) hydrogenated castor oil in physiological saline solution)
(§11) Drug efficacy against the ascitic tumors is expressed as percentage of the median (mean) survival time of the test group to that of the control group. [formula]

[8] = test system: B16 Melanoma; experiment: B16 Melanoma in mice, graded doses (Test 11); type: in vivo, mice (BDF1); settings: days 1-9
Protocol: as §9, §3, §10, §11

[9] = test system: Human LX-1 lung; experiment: Human LX-1 lung tumor in nude mice (Test 9); type: in vivo, human (in BALB/c nu/nu mice); settings: 5.6 mg/kg i.v., days 10, 14 & 17; evaluation day 21
Protocol: as §5, §1, §2, §6, §7, §8

Structure (SMILES): CC(=O)Oc1cc(C=O)cc2c1C(COC(N)=O)C1(OC(C)=O)ON2CC2C1N2C(C)=O (stereo not drawn) [Compound R, 11-Acetyl-4-formyl-8-carbamoyloxymethyl-14-oxa-1,11-diazatetracyclo[7.4.1.0^2,7.0^10,12]tetradeca-2,4,6-trien-6,9-diyl diacetate]
- 1-T'/C' [1]: 100%
- T/C [2]: 197%
- 1-T"/C" [3]: 99%
- T/C [4]: > 316%
- IC50 [5]: 0.05 µg/mL
- Solubility ([6]; acetone): Soluble
- Solubility ([6]; chloroform): Soluble
- Solubility ([6]; methanol): Soluble
- Solubility ([6]; water): Insoluble
- T/C ([7]; 0.1 mg/kg i.p.): 125%
- T/C ([7]; 0.32 mg/kg i.p.): 131%
- T/C ([7]; 1.0 mg/kg i.p.): 156%
- T/C ([7]; 3.2 mg/kg i.p.): 150%
- T/C ([7]; 5.6 mg/kg i.p.): 163%
- T/C ([7]; 10 mg/kg i.p.): 106%
- T/C ([7]; 18 mg/kg i.p.): 88%
- T/C ([8]; 0.0032 mg/kg i.p.): 106%
- T/C ([8]; 0.01 mg/kg i.p.): 122%
- T/C ([8]; 0.032 mg/kg i.p.): 166%
- T/C ([8]; 0.1 mg/kg i.p.): 219%
- T/C ([8]; 0.32 mg/kg i.p.): 213%
- T/C ([8]; 0.56 mg/kg i.p.): > 291%
- T/C ([8]; 1.0 mg/kg i.p.): > 375%
- T/C ([8]; 1.8 mg/kg i.p.): > 375%
- T/C ([8]; 3.2 mg/kg i.p.): 225%
- T/C ([8]; 5.6 mg/kg i.p.): 134%
- T/C ([8]; 10 mg/kg i.p.): 66%
- 1-T"/C" [9]: 90%

Structure (SMILES): C=C1c2c(OC(C)=O)cc(C=O)cc2N2CC3C(N3C(C)=O)C1(O)O2 (stereo not drawn) [Compound S, 11-Acetyl-4-formyl-9-hydroxy-8-methylene-14-oxa-1,11-diazatetracyclo[7.4.1.0^2,7.0^10,12]tetradeca-2,4,6-trien-6-yl acetate]
- IC50 [5]: 0.02 µg/mL

Structure (SMILES): CC(=O)OCc1cc(OC(C)=O)c2c(c1)N1CC3C(N3C(C)=O)C(O)(O1)C2COC(N)=O (stereo not drawn) [Compound T, 11-Acetyl-4-acetoxymethyl-8-carbamoyloxymethyl-9-hydroxy-14-oxa-1,11-diazatetracyclo[7.4.1.0^2,7.0^10,12]tetradeca-2,4,6-trien-6-yl acetate]
- IC50 [5]: 0.02 µg/mL

Structure (SMILES): CC(=O)OCc1cc(OC(C)=O)c2c(c1)N1CC3C(N3C(C)=O)C(OC(C)=O)(O1)C2COC(N)=O (stereo not drawn) [Compound U, 4-Acetoxymethyl-11-acetyl-8-carbamoyloxymethyl-14-oxa-1,11-diazatetracyclo[7.4.1.0^2,7.0^10,12]tetradeca-2,4,6-trien-6,9-diyl diacetate]
- IC50 [5]: 0.01 to 0.02 µg/mL

Structure (SMILES): COc1cc(C=O)cc2c1C(COC(N)=O)C1(OC(C)=O)ON2CC2C1N2C(C)=O (stereo not drawn) [Compound V, 11-Acetyl-8-carbamoyloxymethyl-4-formyl-6-methoxy-14-oxa-1,11-diazatetracyclo[7.4.1.0^2,7.0^10,12]tetradeca-2,4,6-trien-9-yl acetate]
- IC50 [5]: 0.02 µg/mL

Structure (SMILES): COc1cc(C=O)cc2c1C(COC(N)=O)C1(O)ON2CC2C1N2C(C)=O (stereo not drawn) [Compound W, 11-Acetyl-4-formyl-9-hydroxy-6-methoxy-14-oxa-1,11-diazatetracyclo[7.4.1.0^2,7.0^10,12]tetradeca-2,4,6-trien-8-ylmethyl carbamate]
- IC50 [5]: 0.01 µg/mL (≈ 0.0265 µM)

— patent US4861774A, “Method of treating tumors using tetracyclo compounds” (priority 1984, dated 1989)
